{
  "source": "patent EP4768480A1",
  "about": "“ALKOXY THIOPHENE ACYL ARYLAMINE COMPOUNDS AND USE THEREOF” (priority 2024, dated 2025)",
  "data": [
    {"target": "T1, SMS2 (Homo sapiens, UniProt Q8NHU3)", "T1 construct": "CAO, Yu research team, National Protein Scientific Center (Shanghai); supplied by an outside laboratory, not a commercial vendor", "T1 sequence (Q8NHU3 1-365)": "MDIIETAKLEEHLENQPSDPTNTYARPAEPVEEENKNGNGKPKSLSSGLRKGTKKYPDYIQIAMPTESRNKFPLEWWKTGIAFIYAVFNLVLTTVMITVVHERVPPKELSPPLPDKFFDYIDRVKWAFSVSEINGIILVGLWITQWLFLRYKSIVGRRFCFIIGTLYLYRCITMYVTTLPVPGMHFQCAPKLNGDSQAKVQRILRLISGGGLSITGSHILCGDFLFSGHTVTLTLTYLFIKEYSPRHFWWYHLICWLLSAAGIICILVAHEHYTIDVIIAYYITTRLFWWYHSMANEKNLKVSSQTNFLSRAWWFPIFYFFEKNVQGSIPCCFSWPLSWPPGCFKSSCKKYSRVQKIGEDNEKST", "assay": "SMS2 inhibitory activity in vitro, HPLC fluorescence quantitative detection (C6-NBD-ceramide to C6-NBD-SM)", "assay_type": "biochemical", "details": "1 µM test compound; SMS2 pure enzyme; 37°C, 30 minutes; average of two measurements; read-out: Inhibition rate on SMS2 at C/µM 1", "source_text": "(§1) • 1. Electro-thermostatic water bath, from Shanghai Yiheng Technology Co., Ltd.); • 2. Vortex Mixer, with model ID of XW-80A, from Shanghai Jingke Industrial Co., Ltd.; • 3. […] High Performance Liquid Chromatography Agilent 1100, equipped with a quaternary pump, vacuum degassing, and FLD fluorescence detector, from Agilent Technologies, Palo Alto, CA, USA; • 5. HPLC column COSMOSIL 5C18-MS-II (4.6mm I.D. X 250mm); • 6. […] The organic solvents used in the present disclosure were purchased from Shanghai National Reagent Company, wherein methanol was pure chromatography; water was ultra-pure water which is filtrated by Milli-Q pump, deionized and ultra-filtrated with 0.22 µm membrane; and other biological consumables were purchased from domestic companies; • 8. Preparation of test compound solutions: each test compound was accurately weighed and dissolved in an appropriate volume of DMSO to prepare a 10 mmol/L stock solution. The stock solution was then diluted with an appropriate volume of DMSO to achieve the desired working concentration; • 9. SMS2 pure enzyme, DDM solution and buffer solution were provided by CAO, Yu research team from National Protein Scientific Center (Shanghai).\n(§2) 79 µl of the diluted enzyme solution were transferred into a 1.5 mL EP tube, 1 µl of inhibitor DMSO solution were added thereto, vortexing for 15 seconds, followed by standing at room temperature for 5 minutes. 20 µl of a mixed solution of DMPC and C6-NBD-ceramide were added, vortexing for 15 seconds, and incubated at 37°C for 30 minutes. 200 µl of anhydrous ethanol were added to quench the reaction, vortexing for 15 seconds. 200 µl of the reaction solution were taken out and stored at 4°C and avoided light for HPLC detection.\n(§3) The peak area values of A(sm) and A(ceramide) in the HPLC chromatogram corresponding to C6-NBD-SM and C6-NBD-Ceramide in the DMSO group and inhibitor group samples were analyzed and recorded, and the inhibition rate of the test compound was calculated according to the following formula. Inhibition rate = (Peak area values of DMSO group−Peak area values of Inhibitor group)/(Peak area values of DMSO group) × 100% [formula]", "units": {"inhibition at 1 µM": "%"}, "values": [
      {"smiles": "O=C(Nc1cccnc1)c1sccc1OCc1ccccc1OCCCCCl", "note": "[1-75, 3-(2-(4-chlorobutoxy)benzyloxy)-N-(pyridin-3-yl)thiophene-2-carboxamide]", "inhibition at 1 µM": 97},
      {"smiles": "O=C(Nc1cccnc1)c1cscc1OCc1ccccc1", "note": "[1-100, 4-(benzyloxy)-N-(pyridin-3-yl)thiophene-3-carboxamide]", "inhibition at 1 µM": 60},
      {"smiles": "O=C(Nc1cccnc1)c1sccc1OCc1ccccc1OC(F)F", "note": "[1-85, 3-(2-difluoro-methoxybenzyloxy)-N-(pyridin-3-yl)thiophene-2-carboxamide]", "inhibition at 1 µM": 73},
      {"smiles": "CCCCCCOc1ccc(Cl)cc1COc1ccsc1C(=O)Nc1cccnc1", "note": "[1-73, 3-(5-chloro-2-(hexyloxy)benzyloxy)-N-(pyridin-3-yl)thiophene-2-carboxamide]", "inhibition at 1 µM": 90},
      {"smiles": "Cc1nc(OCc2ccccc2)c(C(=O)Nc2cccnc2)s1", "note": "[12-9, 4-(benzyloxy)-2-methyl-N-(pyridin-3-yl)thiazole-5-carboxamide]", "inhibition at 1 µM": -2},
      {"smiles": "CCOC(=O)c1ccccc1COc1ccsc1C(=O)Nc1cccnc1", "note": "[1-84]", "inhibition at 1 µM": 63},
      {"smiles": "O=C(Nc1ccc2c(c1)Cc1ccccc1-2)c1sccc1OCc1ccccc1", "note": "[12-7, 3-(benzyloxy)-N-(9H-fluoren-2-yl)thiophene-2-carboxamide]", "inhibition at 1 µM": -16},
      {"smiles": "O=C(Nc1ccc2c(c1)oc1ccccc12)c1sccc1OCc1ccccc1", "note": "[12-6, 3-(benzyloxy)-N(dibenzo[b,d]furan-3-yl)thiophene-2-carboxamide]", "inhibition at 1 µM": -5},
      {"smiles": "COc1ccc2ccccc2c1COc1ccsc1C(=O)Nc1cccnc1", "note": "[1-16, 3-[(2-methoxynaphthalen-1-yl)methoxy]-N-(pyridin-3-yl)thiophene-2-carboxamide]", "inhibition at 1 µM": 78},
      {"smiles": "O=C(Nc1cccnc1)c1sccc1OCc1cccc2ccccc12", "note": "[1-10, 3-(naphthalen-1-ylmethoxy)-N-(pyridin-3-yl)thiophene-2-carboxamide]", "inhibition at 1 µM": 86},
      {"smiles": "O=C(Nc1cccnc1)c1sccc1OCc1ccccc1F", "note": "[1-44, 3-(2-fluorobenzyloxy)-N-(pyridin-3-yl)thiophene-2-carboxamide]", "inhibition at 1 µM": 54},
      {"smiles": "O=C(Nc1cccnc1)c1sccc1OCc1cccc(C(F)(F)F)c1", "note": "[1-97, 3-(3-trifluoromethylbenzyloxy)-N-(pyridin-3-yl)thiophene-2-carboxamide]", "inhibition at 1 µM": 80},
      {"smiles": "CCCCCOc1cccc(Cl)c1COc1ccsc1C(=O)Nc1cccnc1", "note": "[1-38, 3-(2-(n-pentyloxy)-6-chlorobenzyloxy)-N-(pyridin-3-yl)thiophene-2-carboxamide]", "inhibition at 1 µM": 91},
      {"smiles": "O=C(Nc1cc(F)c(F)c(F)c1)c1sccc1OCc1ccccc1", "note": "[12-10]", "inhibition at 1 µM": -30},
      {"smiles": "COc1ccc(OC)c(COc2ccsc2C(=O)Nc2cccnc2)c1", "note": "[1-98, 3-(2,5-dimethoxybenzyloxy)-N-(pyridin-3-yl)thiophene-2-carboxamide]", "inhibition at 1 µM": 50},
      {"smiles": "CCc1ccccc1COc1ccsc1C(=O)Nc1cccnc1", "note": "[1-81, 3-(2-ethylbenzyloxy)-N-(pyridin-3-yl)thiophene-2-carboxamide]", "inhibition at 1 µM": 73},
      {"smiles": "O=C(Nc1cccnc1)c1sccc1OCc1cc(OP(=O)(O)O)ccc1Cl", "note": "[1-26]", "inhibition at 1 µM": 13},
      {"smiles": "O=C(Nc1cccnc1)c1sccc1OCc1ccccc1OCCCCCCCl", "note": "[1-76, 3-(2-(6-chlorohexyloxy)benzyloxy)-N-(pyridin-3-yl)thiophene-2-carboxamide]", "inhibition at 1 µM": 93},
      {"smiles": "O=C(Nc1cccnc1)c1sccc1OCc1ccccc1I", "note": "[1-87, 3-(yloxy)-N-(pyridin-3-yl)thiophene-2-carboxamide]", "inhibition at 1 µM": 82}
    ]},
    {"target": "T1, SMS2", "assay": "SMS2 inhibitory activity in vitro, HPLC fluorescence quantitative detection (C6-NBD-ceramide to C6-NBD-SM)", "assay_type": "biochemical", "details": "10 µM test compound; SMS2 pure enzyme; 37°C, 30 minutes; average of two measurements; read-out: Inhibition rate on SMS2 at C/µM 10", "source_text": "as §1, §2, §3", "units": {"inhibition at 10 µM": "%"}, "values": [
      {"smiles": "COc1ccc(COc2ccsc2C(=O)Nc2cccnc2)cc1", "note": "[1-56, 3-(4-methoxybenzyloxy)-N-(pyridin-3-yl)thiophene-2-carboxamide]", "inhibition at 10 µM": 50},
      {"smiles": "Cc1ccncc1NC(=O)c1sccc1OCc1ccccc1", "note": "[1-69, 3-benzyloxy-N-(4-methylpyridin-3-yl)thiophene-2-carboxamide]", "inhibition at 10 µM": 65},
      {"smiles": "O=C(Nc1cccnc1)c1sccc1OCc1ccc(OC(F)(F)F)cc1", "note": "[1-54, 3-(4-(trifluoromethoxy)benzyloxy)-N-(pyridin-3-yl)thiophene-2-carboxamide]", "inhibition at 10 µM": 57},
      {"smiles": "O=C(O)CCCCCOc1ccccc1COc1ccsc1C(=O)Nc1cccnc1", "note": "[1-17, 6-(2-[(2-(pyridin-3-ylcarbamoyl)thiophene-3-yl)oxymethyl]phenoxy)hexanoic acid]", "inhibition at 10 µM": 50},
      {"smiles": "Cc1ncccc1NC(=O)c1sccc1OCc1ccccc1", "note": "[1-68, 3-benzyloxy-N-(2-methylpyridin-3-yl)thiophene-2-carboxamide]", "inhibition at 10 µM": 50},
      {"smiles": "O=C(Nc1cccnc1)c1sccc1OCc1ccc2ccccc2c1", "note": "[1-11, 3-(naphthalen-2-ylmethoxy)-N-(pyridin-3-yl)thiophene-2-carboxamide]", "inhibition at 10 µM": 50},
      {"smiles": "Cc1ccc(NC(=O)Cc2ccccc2COc2ccsc2C(=O)Nc2cccnc2)nc1", "note": "[12-8, 3-(2-(2-((5-methylpyridin-2-yl)amino)-2-oxoethyl)benzyloxy)-N-(pyridin-3-yl) thiophene-2-carboxamide]", "inhibition at 10 µM": 7},
      {"smiles": "CC(C)(C)C(=O)Oc1ccc(Cl)c(COc2ccsc2C(=O)Nc2cccnc2)c1", "note": "[1-23]", "inhibition at 10 µM": 53},
      {"smiles": "O=C(Nc1ccnnc1)c1sccc1OCc1ccccc1", "note": "[12-2, 3-benzyloxy-N-(pyridazin-4-yl)thiophene-2-carboxamide]", "inhibition at 10 µM": 23},
      {"smiles": "Cc1cncc(NC(=O)c2sccc2OCc2ccccc2)c1", "note": "[1-83, 3-benzyloxy-N-(5-methylpyridin-3-yl)thiophene-2-carboxamide]", "inhibition at 10 µM": 50},
      {"smiles": "O=C(Nc1cnccc1Cl)c1sccc1OCc1ccccc1", "note": "[1-91, 3-benzyloxy-N-(4-chloropyridin-3-yl)thiophene-2-carboxamide]", "inhibition at 10 µM": 56},
      {"smiles": "CCCCCCOc1cccc(COc2ccsc2C(=O)Nc2cccnc2)c1", "note": "[1-79, 3-(3-(hexyloxy)benzyloxy)-N-(pyridin-3-yl)thiophene-2-carboxamide]", "inhibition at 10 µM": 60},
      {"smiles": "O=C(Nc1cccnc1)c1scc(Br)c1OCc1ccccc1", "note": "[1-15, 3-benzyloxy-4-bromo-N-(pyridin-3-yl)thiophene-2-carboxamide]", "inhibition at 10 µM": 53},
      {"smiles": "COC(=O)c1ccccc1COc1ccsc1C(=O)Nc1cccnc1", "note": "[1-22, 2-[(2-(pyridin-3-ylcarbamoyl)thiophene-3-yl)oxymethyl]methyl benzoate]", "inhibition at 10 µM": 81},
      {"smiles": "O=C(Nc1cccnc1)c1sccc1OCc1ccc(F)cc1", "note": "[1-46, 3-(4-fluorobenzyloxy)-N-(pyridin-3-yl)thiophene-2-carboxamide]", "inhibition at 10 µM": 70},
      {"smiles": "CC(C)(O)COc1ccc(F)cc1COc1ccsc1C(=O)Nc1cccnc1", "note": "[1-8, 3-(5-fluoro-2-(2-hydroxy-2-methylpropoxy)benzyloxy)-N-(pyridin-3-yl)thiophene-2-carboxamide]", "inhibition at 10 µM": 56},
      {"smiles": "O=C(Nc1cccnc1)c1sccc1OCc1cccs1", "note": "[1-77, 3-(thiophen-2-ylmethoxy)-N-(pyridin-3-yl)thiophene-2-carboxamide]", "inhibition at 10 µM": 65},
      {"smiles": "O=C(Nc1cccnc1)c1ncccc1OCc1ccccc1", "note": "[12-15, 3-benzyloxy-N-(pyridin-3-yl)pyridin-2-carboxamide]", "inhibition at 10 µM": 16},
      {"smiles": "CCOC(=O)CCCCCOc1ccccc1COc1ccsc1C(=O)Nc1cccnc1", "note": "[1-18, 6-(2-[(2-(pyridin-3-ylcarbamoyl)thiophene-3-yl)oxymethyl]phenoxy)ethyl hexanoate]", "inhibition at 10 µM": 97}
    ]}
  ]
}
